From ChEMBL document CHEMBL1201862, “PubChem BioAssay data set” (2004)
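96-well plates; 48 h exposure; 5 concentrations. Endpoints by linear interpolation between flanking doses. Not reached: highest tested concentration assigned. GI50: concentration for 50% inhibition of growth.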 Activity calls are given as the source filed them. Rule as the data show it: active = GI50 up to about 1.1 µM and inactive = higher.

Experiments:
Assay in all cases: NCI-60 cell line screen, 48 h
Hs-578T = tested on: Hs-578T
SK-MEL-28 = tested on: SK-MEL-28
SK-MEL-5 = tested on: SK-MEL-5
NCI-H226 = tested on: NCI-H226
UO-31 = tested on: UO-31
SNB-19 = tested on: SNB-19
LOX IMVI = tested on: LOX IMVI
PC-3 = tested on: PC-3
MDA-N = tested on: MDA-N
NCI-H23 = tested on: NCI-H23
HOP-62 = tested on: HOP-62
NCI/ADR-RES = tested on: NCI/ADR-RES
M14 = tested on: M14
HCC 2998 = tested on: HCC 2998
CAKI-1 = tested on: CAKI-1
KM12 = tested on: KM12
SF-295 = tested on: SF-295
COLO 205 = tested on: COLO 205
CCRF-CEM = tested on: CCRF-CEM

Measured: GI50

CCN1C(NCCO)=NS(=O)(=O)c2ccccc21
inactive: Hs-578T > 100 µM | SK-MEL-28 > 100 µM | SK-MEL-5 > 100 µM | NCI-H226 > 100 µM | UO-31 > 100 µM | SNB-19 > 100 µM | LOX IMVI > 100 µM | PC-3 > 100 µM | MDA-N > 100 µM | NCI-H23 > 100 µM | HOP-62 > 100 µM | NCI/ADR-RES > 100 µM | M14 > 100 µM | HCC 2998 > 100 µM | CAKI-1 > 100 µM | KM12 > 100 µM | SF-295 > 100 µM | COLO 205 > 100 µM | CCRF-CEM > 100 µM

CC(C)(C)OC(=O)Cn1ncn(NC(=O)Cc2ccccc2)c1=O
inactive: Hs-578T > 10 µM | SK-MEL-28 > 10 µM | SK-MEL-5 > 10 µM | NCI-H226 > 10 µM | UO-31 > 10 µM | SNB-19 > 10 µM | LOX IMVI > 10 µM | PC-3 > 10 µM | MDA-N > 10 µM | NCI-H23 > 10 µM | HOP-62 > 10 µM | NCI/ADR-RES > 10 µM | M14 > 10 µM | HCC 2998 > 10 µM | CAKI-1 > 10 µM | KM12 > 10 µM | SF-295 > 10 µM | COLO 205 > 10 µM | CCRF-CEM > 10 µM

O=C1Nc2c(Cl)cc(Cl)cc2/C1=N/NC(=O)c1ccncc1
inactive: Hs-578T 40.6 µM | SK-MEL-28 22.6 µM | SK-MEL-5 17.9 µM | NCI-H226 47.2 µM | UO-31 27.9 µM | SNB-19 > 100 µM | LOX IMVI 16.9 µM | PC-3 15.7 µM | MDA-N 15.7 µM | NCI-H23 22.8 µM | HOP-62 25.8 µM | NCI/ADR-RES 23.1 µM | M14 46.2 µM | HCC 2998 44.1 µM | CAKI-1 18.4 µM | KM12 30.9 µM | SF-295 38.5 µM | COLO 205 27.2 µM | CCRF-CEM 29.4 µM

OC(CCN1CCN(CCOC(c2ccccc2)c2ccccc2)CC1)c1ccccc1 (stereo unspecified)
inactive: Hs-578T 21.1 µM | SK-MEL-28 17.9 µM | SK-MEL-5 15.3 µM | NCI-H226 27.9 µM | UO-31 24.7 µM | SNB-19 32.4 µM | LOX IMVI 19 µM | PC-3 21.5 µM | MDA-N 19.3 µM | NCI-H23 24.7 µM | HOP-62 20.5 µM | NCI/ADR-RES 21.5 µM | M14 18.1 µM | HCC 2998 14.8 µM | CAKI-1 32 µM | KM12 20.9 µM | SF-295 20.1 µM | COLO 205 14.5 µM | CCRF-CEM 27.7 µM
